Test results reported in patent US20230086703A1, “N-(4-(5-chloropyridin-3-yl)phenyl)-2-(2-(cyclopropanesulfonamido)pyrimidin-4-yl) butanamide derivatives and related compounds as human CTPS1 inhibitors for the treatment of proliferative diseases” (Step Pharma S.A.S., priority 2019, published 2023).
Like-named read-outs stand apart in the source and are kept apart here.

What was measured:
human CTPS1 [1] = biological target: T1, human CTPS1 (Homo sapiens, UniProt P17812); assay: RapidFire/MS-based enzyme selectivity assay (human CTPS1 versus CTPS2), CTPS1 isoform; format: biochemical
T1 construct: FLAG (with GG linker); His8 (with GG linker); purchased Proteros biostructures GmbH
T1 sequence (P17812 1-591): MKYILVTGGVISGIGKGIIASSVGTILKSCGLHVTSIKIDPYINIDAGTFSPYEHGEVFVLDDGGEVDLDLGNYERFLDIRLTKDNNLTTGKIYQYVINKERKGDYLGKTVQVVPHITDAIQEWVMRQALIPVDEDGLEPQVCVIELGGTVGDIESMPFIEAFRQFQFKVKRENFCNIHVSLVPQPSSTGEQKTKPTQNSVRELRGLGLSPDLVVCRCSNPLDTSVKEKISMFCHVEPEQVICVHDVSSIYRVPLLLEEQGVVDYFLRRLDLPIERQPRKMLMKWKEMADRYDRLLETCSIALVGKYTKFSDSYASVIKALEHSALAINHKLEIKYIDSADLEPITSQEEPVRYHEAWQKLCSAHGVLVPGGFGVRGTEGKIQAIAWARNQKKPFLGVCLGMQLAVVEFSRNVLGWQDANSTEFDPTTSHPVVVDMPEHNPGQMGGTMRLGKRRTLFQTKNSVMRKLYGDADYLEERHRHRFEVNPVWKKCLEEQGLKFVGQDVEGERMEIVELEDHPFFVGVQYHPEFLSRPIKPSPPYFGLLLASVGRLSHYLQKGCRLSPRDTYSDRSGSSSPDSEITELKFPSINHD
In short: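 Full-length C-terminal FLAG-His-tagged CTPS1 (1-591) was preincubated 10 min at 25 °C with compound in HEPES pH 8.0 buffer with MgCl2, KCl, DTT and Tween-20. Reactions were started with a 2× mix of ATP 0.3 mM, UTP 0.2 mM, GTP 0.07 mM and L-glutamine 0.1 mM, and run in the linear phase at 25 °C. IC50 comes from the RapidFire-MS ratio of CTP to 13C9-15N3-CTP.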

human CTPS1 [2] = biological target: T1, human CTPS1; assay: Human CTPS1 enzyme inhibition, ADP-Glo Max assay; format: biochemical
In short: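 Read-out is ADP-Glo Max luminescence: residual ATP depleted (60 min), then produced ADP converted back to ATP for luciferase detection (60 min). Beforehand, protein and compound were mixed for 10 min at 25 °C in Tris buffer pH 8.0 with MgCl2, Tween-20 and 2 mM L-cysteine. Results expressed as percentage inhibition per concentration.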

[3] = RapidFire/MS IC50 values of CTPS1 and CTPS2, Table 17
[4] = Table 12, ADP-Glo Max assay, read-out: CTPS1 (Human CTPS1 Enzyme Inhibition data grouped by potency range)
[5] = RapidFire/MS IC50 values of CTPS1 and CTPS2, Table 15
[6] = Table 16, human CTPS1 over human CTPS2, RapidFire/MS IC50 values

| SMILES | Selectivity (fold selectivity between CTPS1 and CTPS2) (human CTPS1 [1]; [3]) | IC50 (human CTPS1 [2]; [4]) [nM] | Selectivity (fold selectivity between CTPS1 and CTPS2) (human CTPS1 [1]; [5]) | IC50 (human CTPS1 [2]; ADP-Glo Max assay, human full length CTPS1, read-out: CTPS1 (Human CTPS1 Enzyme Inhibition data grouped by potency range, IC50)) [nM] | Selectivity (fold selectivity between CTPS1 and CTPS2) (human CTPS1 [1]; [6]) |
| --- | --- | --- | --- | --- | --- |
| COC1CCC(C(=O)Nc2ccc(-c3cncc(C4CC4)n3)cn2)(c2ccnc(NS(=O)(=O)C3CC3)n2)CC1 (stereo not drawn) [P313] | +++ (>60 fold (+++)) | < 100 |  |  |  |
| CCOc1cncc(-c2ccc(NC(=O)C3(c4ccnc(NS(=O)(=O)C5CC5)n4)CCC(N(C)C4COC4)CC3)nc2)n1 (stereo not drawn) [P307] | +++ (>60 fold (+++)) | < 100 |  |  |  |
| CCOc1cncc(-c2ccc(NC(=O)C3(c4ccnc(NS(=O)(=O)C5CC5)n4)CCN(S(=O)(=O)CC)CC3)nc2)n1 [P289] | +++ (>60 fold (+++)) | < 100 |  |  |  |
| CCOc1cncc(-c2ccc(NC(=O)C3(c4ccnc(NS(=O)(=O)C5CC5)n4)CCC(N(C)CCOC)CC3)nc2)n1 (stereo not drawn) [P308] | +++ (>60 fold (+++)) | < 100 |  |  |  |
| CCOc1cncc(-c2ccc(NC(=O)C3(c4ccnc(NS(=O)(=O)CC)n4)CCN(S(=O)(=O)CC)CC3)nc2)n1 [P298] | +++ (>60 fold (+++)) | < 100 |  |  |  |
| CCOc1cncc(-c2ccc(NC(=O)C(F)(CC)c3ccnc(NS(=O)(=O)C4CC4)n3)nc2)n1 (stereo not drawn) [P112, 2-(2-(Cyclopropanesulfonamido)pyrimidin-4-yl)-N-(5-(6-ethoxypyrazin-2-yl)pyridin-2-yl)-2-fluorobutanamide] |  |  | ++ (>30-60 fold (++)) | < 100 |  |
| CCOc1cncc(-c2ccc(NC(=O)C3(c4ccnc(NS(=O)(=O)C5CC5)n4)CCN(S(=O)(=O)c4ccn(C)n4)CC3)nc2)n1 [P293] | +++ (>60 fold (+++)) | < 100 |  |  |  |
| CCOc1cncc(-c2ccc(NC(=O)C3(c4ccnc(NS(=O)(=O)C5CC5)n4)CCN(S(=O)(=O)C4CC4)CC3)nc2)n1 [P290] | +++ (>60 fold (+++)) | < 100 |  |  |  |
| CCOc1cncc(-c2ccc(NC(=O)C3(c4ccnc(NS(=O)(=O)C5CC5)n4)CCC(N4CCOCC4)CC3)nc2)n1 (stereo not drawn) [P306] | +++ (>60 fold (+++)) | < 100 |  |  |  |
| COC1CCC(C(=O)Nc2ccc(-c3cncc(C4CC4)n3)cn2)(c2ccnc(NS(=O)(=O)C3CC3)n2)CC1 (stereo not drawn) [P301] | +++ (>60 fold (+++)) | < 100 |  |  |  |
| CCOc1cncc(-c2ccc(NC(=O)C3(c4nccc(NS(=O)(=O)C5CC5)n4)CCN(S(=O)(=O)CC)CC3)nc2)n1 [P318] | +++ (>60 fold (+++)) | < 100 |  |  |  |
| CCOc1cncc(-c2ccc(NC(=O)C3(c4cncc(NS(=O)(=O)C5CC5)n4)CCN(S(C)(=O)=O)CC3)nc2)n1 [P314] | +++ (>60 fold (+++)) | < 100 |  |  |  |
| CCOc1cncc(-c2ccc(NC(=O)C3(c4ccnc(NS(=O)(=O)CC)n4)CCN(S(=O)(=O)C4CC4)CC3)nc2)n1 [P299] | +++ (>60 fold (+++)) | < 100 |  |  |  |
| CCOc1cncc(-c2ccc(NC(=O)C3(c4ccnc(NS(=O)(=O)C5CC5)n4)CCC(N4CCOCC4)CC3)nc2)n1 (stereo not drawn) [P305] | +++ (>60 fold (+++)) | 100 to 1000 |  |  |  |
| CCOc1cncc(-c2ccc(NC(=O)C3(c4ccnc(NS(=O)(=O)CC)n4)CCN(S(=O)(=O)c4ccn(C)n4)CC3)nc2)n1 [P300] | +++ (>60 fold (+++)) | < 100 |  |  |  |
| CCOc1cncc(-c2ccc(NC(=O)C3(c4ccnc(NS(=O)(=O)C5CC5)n4)CCC(N4CCN(C)CC4)CC3)nc2)n1 (stereo not drawn) [P312] | +++ (>60 fold (+++)) | < 100 |  |  |  |
| CS(=O)(=O)N1CCC(C(=O)Nc2ccc(-c3cncc(C4CC4)n3)cn2)(c2nccc(NS(=O)(=O)C3CC3)n2)CC1 [P315] | +++ (>60 fold (+++)) | < 100 |  |  |  |

| SMILES | Selectivity (fold selectivity between CTPS1 and CTPS2) (human CTPS1 [1]; [3]) | IC50 (human CTPS1 [2]; [4]) [nM] | Selectivity (fold selectivity between CTPS1 and CTPS2) (human CTPS1 [1]; [5]) | IC50 (human CTPS1 [2]; ADP-Glo Max assay, human full length CTPS1, read-out: CTPS1 (Human CTPS1 Enzyme Inhibition data grouped by potency range, IC50)) [nM] | Selectivity (fold selectivity between CTPS1 and CTPS2) (human CTPS1 [1]; [6]) |
| --- | --- | --- | --- | --- | --- |
| CCOc1cncc(-c2ccc(NC(=O)C3(c4nccc(NS(=O)(=O)C5CC5)n4)CCN(S(C)(=O)=O)CC3)nc2)n1 [P316] | +++ (>60 fold (+++)) | < 100 |  |  |  |
| CCOc1cncc(-c2ccc(NC(=O)C3(c4ccnc(NS(=O)(=O)C5CC5)n4)CCC(N(C)CCOC)CC3)nc2)n1 (stereo not drawn) [P309] | +++ (>60 fold (+++)) | 100 to 1000 |  |  |  |
| CCOc1cncc(-c2ccc(NC(=O)C3(c4ccnc(NS(=O)(=O)C5CC5)n4)CCC(N4CCCC4)CC3)nc2)n1 (stereo not drawn) [P302] | +++ (>60 fold (+++)) | < 100 |  |  |  |
| CCOc1cncc(-c2ccc(NC(=O)C3(c4ccnc(NS(=O)(=O)C5CC5)n4)CCN(S(=O)(=O)C(F)(F)F)CC3)nc2)n1 [P292] | +++ (>60 fold (+++)) | < 100 |  |  |  |
| CCOc1cncc(-c2ccc(NC(=O)C3(c4ccnc(NS(=O)(=O)CC)n4)CCN(S(C)(=O)=O)CC3)nc2)n1 [P297] | +++ (>60 fold (+++)) | < 100 |  |  |  |
| CCOc1cncc(-c2ccc(NC(=O)C3(c4ccnc(NS(=O)(=O)C5CC5)n4)CCC(N4CCCC4)CC3)nc2)n1 (stereo not drawn) [P303] | +++ (>60 fold (+++)) | 100 to 1000 |  |  |  |
| CCS(=O)(=O)N1CCC(C(=O)Nc2ccc(-c3cncc(C4CC4)n3)cn2)(c2nccc(NS(=O)(=O)C3CC3)n2)CC1 [P317] | +++ (>60 fold (+++)) | < 100 |  |  |  |
| CCOc1cncc(-c2ccc(C(=O)NC3(c4csc(NS(=O)(=O)C5CC5)n4)CC3)c(F)c2)n1 [R82, N-(1-(2-(cyclopropanesulfon-amido)thiazol-4-yl)cyclo-propyl)-4-(6-ethoxypyrazin-2-yl)-2-fluorobenzamide] |  |  |  |  | +++ (>60 fold (+++)) |
| CCOc1cncc(-c2ccc(NC(=O)C3(c4ccnc(NS(=O)(=O)C5CC5)n4)CCC(N(C)C)CC3)nc2)n1 (single isomer, unassigned) [P230, 1-(2-(cyclopropanesulfonamido)pyrimidin-4-yl)-4-(dimethylamino)-N-(5-(6-ethoxypyrazin-2-yl)pyridin-2-yl)cyclohexane-1-carboxamide] | + (2-30 fold (+)) | 1000 to 10000 |  |  |  |
| CCOc1cncc(-c2ccc(NC(=O)C3(c4ccnc(NS(=O)(=O)C5CC5)n4)CCN(S(=O)(=O)N(C)C)CC3)nc2)n1 [P291] | +++ (>60 fold (+++)) | < 100 |  |  |  |
| CCOc1cncc(-c2ccc(NC(=O)C3(c4nccc(NS(=O)(=O)C5CC5)n4)CCN(CC#N)CC3)nc2)n1 [P294] | +++ (>60 fold (+++)) | < 100 |  |  |  |
| CCOc1cncc(-c2ccc(NC(=O)C(F)(CC)c3cncc(NS(=O)(=O)C4CC4)n3)nc2)n1 (single isomer, unassigned) [P206, 2-(6-(2-cyclopropanesulfonamido)pyrazin-2-yl)-N-(5-(6-ethoxypyrazin-2-yl)pyridin-2-yl)-2-fluorobutanamide] |  |  | +++ (>60 fold (+++)) |  |  |
| CC(C)Oc1cncc(-c2ccc(NC(=O)Cc3ccnc(NS(=O)(=O)C4CC4)n3)cc2)n1 [P21, 2-(2-(cyclopropanesulfonamido)pyrimidin-4-yl)-N-(4-(6-isopropoxypyrazin-2-yl)phenyl)acetamide] |  |  | ++ (>30-60 fold (++)) |  |  |
| CC(C)Oc1cncc(-c2ccc(C(=O)NC(C)(C)c3csc(NS(=O)(=O)C4CC4)n3)cc2)n1 [R56, N-(2-(2-(cyclopropanesulfon-amido)thiazol-4-yl)propan-2-yl)-4-(6-isopropoxypyrazin-2-yl)benzamide] |  |  |  |  | +++ (>60 fold (+++)) |
| CCOc1cncc(-c2ccc(C(=O)NC(CCOC)c3csc(NS(=O)(=O)C4CC4)n3)c(F)c2)n1 (stereo not drawn) [R88, N-(1-(2-(cyclopropanesulfon-amido)thiazol-4-yl)-3-methoxypropyl)-4-(6-ethoxypyrazin-2-yl)-2-fluorobenzamide] |  |  |  |  | +++ (>60 fold (+++)) |
| CCOc1cncc(-c2ccc(NC(=O)C3(c4ccnc(NS(=O)(=O)C5CC5)n4)CCC(O)CC3)nc2)n1 (single isomer, unassigned) [P227, 1-(2-(cydopropanesulfonamido)pyrimidin-4-yl)-N-(5-(6-ethoxypyrazin-2-yl)pyridin-2-yl)-4-hydroxycyclohexanecarboxamide] | +++ (>60 fold (+++)) |  |  |  |  |
